Measured values taken from patent US20140005163A1 (NOVARTIS AG, priority 2010, published 2014).
≈ marks a conversion by molar mass, not a printed value.

Legend:
Solubility at pH 6.8 = type: physicochemical; conditions: pH 6.8, aqueous buffer, thermodynamic from solid; read-out: solubility
Procedure, shortened: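 Solubility was measured at pH 6.8 following the cited Zhou et al. (2007) procedure.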

[1] = tested on: PKB Ser473 phosphorylation in Rat1-myr-HA-p110 delta cells; experiment: Reverse protein array assay, PKB Ser473 phosphorylation in Rat1-myr-p110 delta cells; type: cell-based; conditions: read-out: p-PKB IC50
Procedure, shortened: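 Lysates were arrayed at four dilutions, and phospho-PKB Ser473 was quantified by relative fluorescence signal. They came from Rat1-myr-HA-p110 alpha, beta or delta cells exposed for 30 min at 37 °C to an 8-point compound series with 0.2% DMSO constant.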

| solubility (Solubility at pH 6.8) [µg/mL] | IC50 [1] [nM] | Compound |
| --- | --- | --- |
| 414 (≈ 999 µM) | 249 | Cc1nn(C)cc1-n1c(=O)n(C)c2cnc3ccc(-c4cncc(C(C)O)c4)cc3c21 (racemic) [Example 217, (rac)-1-(1,3-Dimethyl-1H-pyrazol-4-yl)-8-[5-(1-hydroxy-ethyl)-pyridin-3-yl]-3-methyl-1,3-dihydro-imidazo[4,5-c]quinolin-2-one] |
| 8 (≈ 18.4 µM) | 327 | Cc1nn(C)cc1-n1c(=O)n(C)c2cnc3ccc(-c4cnc(CO)c(Cl)c4)cc3c21 [Example 238, 8-(5-Chloro-6-hydroxymethyl-pyridin-3-yl)-1-(1,3-dimethyl-1H-pyrazol-4-yl)-3-methyl-1,3-dihydro-imidazo[4,5-c]quinolin-2-one] |
| 69 (≈ 128 µM) | 157 | CCN(CC)C(=O)Cn1cc(-n2c(=O)n(C)c3cnc4ccc(-c5cnc(N6CCCC6)nc5)cc4c32)c(C)n1 [Example 247.1, N,N-Diethyl-2-{3-methyl-4-[3-methyl-2-oxo-8-(2-pyrrolidin-1-yl-pyrimidin-5-yl)-2,3-dihydro-imidazo[4,5-c]quinolin-1-yl]-pyrazol-1-yl}-acetamide] |
| > 458 | 12 | CCNc1cc(-c2ccc3ncc4c(c3c2)n(-c2cn(C)nc2C)c(=O)n4C)cnc1COC [Example 156, 1-(1,3-Dimethyl-1H-pyrazol-4-yl)-8-(5-ethylamino-6-methoxymethyl-pyridin-3-yl)-3-methyl-1,3-dihydro-imidazo[4,5-c]quinolin-2-one] |
| > 429 | 45 | CNc1cc(-c2ccc3ncc4c(c3c2)n(-c2cn(C)nc2C)c(=O)n4C)cnc1CO [Example 158.1, 1-(1,3-Dimethyl-1H-pyrazol-4-yl)-8-(6-hydroxymethyl-5-methylamino-pyridin-3-yl)-3-methyl-1,3-dihydro-imidazo[4,5-c]quinolin-2-one] |
| 94 (≈ 208 µM) | 27 | COc1cc(-c2ccc3ncc4c(c3c2)n(-c2cn(C)nc2Cl)c(=O)n4C)cnc1CO [Example 194.2, 1-(3-chloro-1-methyl-1H-pyrazol-4-yl)-8-(6-hydroxymethyl-5-methoxy-pyridin-3-yl)-3-methyl-1,3-dihydro-imidazo[4,5-c]quinolin-2-one] |
| 11 (≈ 21.1 µM) | 223 | Cc1nn(CC(=O)N(C)C)c(C)c1-n1c(=O)n(C)c2cnc3ccc(-c4ccc(-n5cccn5)cc4)cc3c21 [Example 51.4, 2-{3,5-Dimethyl-4-[3-methyl-2-oxo-8-(4-pyrazol-1-yl-phenyl)-2,3-dihydro-imidazo[4,5-c]quinolin-1-yl]pyrazol-1-yl}-N,N-dimethyl-acetamide] |
| 4 (≈ 8.76 µM) | 131 | CCOC(C)(C)c1cncc(-c2ccc3ncc4c(c3c2)n(-c2cn(C)nc2C)c(=O)n4C)c1 [Example 240, 1-(1,3-Dimethyl-1H-pyrazol-4-yl)-8-[5-(1-ethoxy-1-methyl-ethyl)-pyridin-3-yl]-3-methyl-1,3-dihydro-imidazo[4,5-c]quinolin-2-one] |
| 136 (≈ 340 µM) | 59 | Cc1ncc(-c2ccc3ncc4c(c3c2)n(-c2cn(C)nc2C)c(=O)n4C)cc1N [Example 88.2, 8-(5-Amino-6-methyl-pyridin-3-yl)-1-(1,3-dimethyl-1H-pyrazol-4-yl)-3-methyl-1,3-dihydro-imidazo[4,5-c]quinolin-2-one] |
| 35 (≈ 71.2 µM) | 177 | Cc1ncc(-c2ccc3ncc4c(c3c2)n(-c2cn(C)nc2C)c(=O)n4C)cc1N(C)S(C)(=O)=O [Example 75, N-{5-[1-(1,3-Dimethyl-1H-pyrazol-4-yl)-3-methyl-2-oxo-2,3-dihydro-1H-imidazo[4,5-c]quinolin-8-yl]-2-methyl-pyridin-3-yl}-N-methyl-methanesulfonamide] |
| > 486 | 91 | CCNc1cc(-c2ccc3ncc4c(c3c2)n(-c2c(C)nn(CCOC)c2C)c(=O)n4C)cnc1C [Example 87.4, 8-(5-Ethylamino-6-methyl-pyridin-3-yl)-1-[1-(2-methoxy-ethyl)-3,5-dimethyl-1H-pyrazol-4-yl]-3-methyl-1,3-dihydro-imidazo[4,5-c]quinolin-2-one] |
| 4 (≈ 9.53 µM) | 33 | Cc1nn(C)cc1-n1c(=O)n(C)c2cnc3ccc(-c4cnc(Cl)c(N)c4)cc3c21 [Example 152.2, 8-(5-Amino-6-chloro-pyridin-3-yl)-1-(1,3-dimethyl-1H-pyrazol-4-yl)-3-methyl-1,3-dihydro-imidazo[4,5-c]quinolin-2-one] |
| 169 (≈ 395 µM) | 39 | Cc1nn(C)cc1-n1c(=O)n(C)c2cnc3ccc(-c4cncc(NC(C)C)c4)cc3c21 [Example 177.1, 1-(1,3-Dimethyl-1H-pyrazol-4-yl)-8-(5-isopropylamino-pyridin-3-yl)-3-methyl-1,3-dihydro-imidazo[4,5-c]quinolin-2-one] |
| 5 (≈ 12.1 µM) | 56 | CCNc1cncc(-c2ccc3ncc4c(c3c2)n(-c2cn(C)nc2C)c(=O)n4C)c1 [Example 122, 1-(1,3-Dimethyl-1H-pyrazol-4-yl)-8-(5-ethylamino-pyridin-3-yl)-3-methyl-1,3-dihydro-imidazo[4,5-c]quinolin-2-one] |
| 75 (≈ 182 µM) | 837 | C=CCn1c(=O)n(-c2cn(C)nc2C)c2c3cc(-c4cncc(N)c4)ccc3ncc21 [Example 246, 3-Allyl-8-(5-amino-pyridin-3-yl)-1-(1,3-dimethyl-1H-pyrazol-4-yl)-1,3-dihydro-imidazo[4,5-c]quinolin-2-one] |
| 11 (≈ 26.6 µM) | 41 | CCn1cc(-n2c(=O)n(C)c3cnc4ccc(-c5cncc(NC)c5)cc4c32)c(C)n1 [Example 180.1, 1-(1-Ethyl-3-methyl-1H-pyrazol-4-yl)-3-methyl-8-(5-methylamino-pyridin-3-yl)-1,3-dihydro-imidazo[4,5-c]quinolin-2-one] |
| 56 (≈ 121 µM) | 56 | Cc1nn(C)cc1-n1c(=O)n(C)c2cnc3ccc(-c4cncc(OC(CF)CF)c4)cc3c21 [Example 182, 1-(1,3-Dimethyl-1H-pyrazol-4-yl)-8-[5-(2-fluoro-1-fluoromethyl-ethoxy)-pyridin-3-yl]-3-methyl-1,3-dihydro-imidazo[4,5-c]quinolin-2-one] |
| 32 (≈ 69 µM) | 10 | CNc1cc(-c2ccc3ncc4c(c3c2)n(-c2cn(C)nc2Cl)c(=O)n4C)cnc1COC [Example 160.1, 1-(3-Chloro-1-methyl-1H-pyrazol-4-yl)-8-(6-methoxymethyl-5-methylamino-pyridin-3-yl)-3-methyl-1,3-dihydro-imidazo[4,5-c]quinolin-2-one] |
| – | 69 | Cc1nn(C)cc1-n1c(=O)n(C)c2cnc3ccc(-c4cnc(N)c(C(=O)NC(C)C)c4)cc3c21 [Example 225, 2-Amino-5-[1-(1,3-dimethyl-1H-pyrazol-4-yl)-3-methyl-2-oxo-2,3-dihydro-1H-imidazo[4,5-c]quinolin-8-yl]-N-isopropyl-nicotinamide] |
| – | 360 | Cc1cc(-n2c(=O)n(C)c3cnc4ccc(-c5cncc(N6CCOCC6)c5)cc4c32)n(C)n1 [Example 175.2, 1-(2,5-Dimethyl-2H-pyrazol-3-yl)-3-methyl-8-(5-morpholin-4-yl-pyridin-3-yl)-1,3-dihydro-imidazo[4,5-c]quinolin-2-one] |
| – | 280 | CCNc1ncc(-c2ccc3ncc4c(c3c2)n(-c2c(C)nn(C)c2C)c(=O)n4C)cc1C(F)(F)F [Example 145.1, 8-(6-Ethylamino-5-trifluoromethyl-pyridin-3-yl)-3-methyl-1-(1,3,5-trimethyl-1H-pyrazol-4-yl)-1,3-dihydro-imidazo[4,5-c]quinolin-2-one] |
| – | 57 | COCCOc1cc(-c2ccc3ncc4c(c3c2)n(-c2cn(C)nc2C)c(=O)n4C)cnc1C [Example 86.2, 1-(1,3-Dimethyl-1H-pyrazol-4-yl)-8-[5-(2-methoxy-ethoxy)-6-methyl-pyridin-3-yl]-3-methyl-1,3-dihydro-imidazo[4,5-c]quinolin-2-one] |
| – | 59 | Cc1nn(C)c(C)c1-n1c(=O)n(C)c2cnc3ccc(-c4cnc(N)c(C(F)(F)F)c4)cc3c21 [Example 25.3, 8-(6-Amino-5-trifluoromethyl-pyridin-3-yl)-3-methyl-1-(1,3,5-trimethyl-1H-pyrazol-4-yl)-1,3-dihydro-imidazo[4,5-c]quinolin-2-one] |
| – | 86 | CCNc1ncc(-c2ccc3ncc4c(c3c2)n(-c2cn(C)nc2C)c(=O)n4C)cc1Cl [Example 147, 8-(5-Chloro-6-ethylamino-pyridin-3-yl)-1-(1,3-dimethyl-1H-pyrazol-4-yl)-3-methyl-1,3-dihydro-imidazo[4,5-c]quinolin-2-one] |
| – | 103 | Cc1nn(C)cc1-n1c(=O)n(C)c2cnc3ccc(-c4cnc(Cl)c(NS(C)(=O)=O)c4)cc3c21 [Example 223, N-{2-Chloro-5-[1-(1,3-dimethyl-1H-pyrazol-4-yl)-3-methyl-2-oxo-2,3-dihydro-1H-imidazo[4,5-c]quinolin-8-yl]-pyridin-3-yl}-methanesulfonamide] |
| – | 95 | CNc1cc(-c2ccc3ncc4c(c3c2)n(-c2c(C)nn(C)c2C)c(=O)n4C)cnc1CO [Example 158.4, 8-(6-Hydroxymethyl-5-methylamino-pyridin-3-yl)-3-methyl-1-(1,3,5-trimethyl-1H-pyrazol-4-yl)-1,3-dihydro-imidazo[4,5-c]quinolin-2-one] |
| – | 62 | Cc1nn(C)cc1-n1c(=O)n(C)c2cnc3ccc(-c4cncc(OCCF)c4)cc3c21 [Example 181, 1-(1,3-Dimethyl-1H-pyrazol-4-yl)-8-[5-(2-fluoro-ethoxy)-pyridin-3-yl]-3-methyl-1,3-dihydro-imidazo[4,5-c]quinolin-2-one] |

| Compound | solubility (Solubility at pH 6.8) [µg/mL] | IC50 [1] [nM] |
| --- | --- | --- |
| CNc1ncc(-c2ccc3ncc4c(c3c2)n(-c2cn(C(C)C)nc2C)c(=O)n4C)cc1CO [Example 171, 8-(5-Hydroxymethyl-6-methylamino-pyridin-3-yl)-1-(1-isopropyl-3-methyl-1H-pyrazol-4-yl)-3-methyl-1,3-dihydro-imidazo[4,5-c]quinolin-2-one] | 5 (≈ 10.9 µM) | 41 |
